{"source": "PubChem BioAssay AID2060908", "about": "(Molecular Pharmacology Branch, DTP, NCI, 2025);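 note: spheroids exposed to compounds for 7 days before viability read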", "system": "186277-243-T-J2-PDC complex spheroids, viability", "test": "Anticancer human tumor 186277-243-T-J2-PDC patient-derived colon adenocarcinoma cell line growth inhibition [RAS]", "conditions": "for IC50: curve of first compound; for viability, T/C: stronger effect = lower value", "procedure,_shortened": "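Agents were tested in combination matrices in half-log decrements from a top concentration at or near clinical Cmax (10 microM if undetermined). Targets were multi-cell spheroids of tumour lines plus HUVEC and MSC stromal cells.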"}
{"smiles": "Nc1ccn(C2OC(CO)C(O)C2(F)F)c(=O)n1", "note": "(configuration not stated) + CCn1c(-c2cccnc2C(C)OC)c2c3cc(ccc31)N1CCOC(CC(NC(=O)C(C(C)C)N(C)C(=O)C3(F)CCN(C(=O)C#CC(C)(C)N(C)C)CC3)C(=O)N3CCCC(N3)C(=O)OCC(C)(C)C2)C1", "values": [{"measurement": "IC50", "setting": "second compound 0.000949 µM", "result": 4.49, "unit": "nM"}, {"measurement": "IC50", "setting": "second compound 0.003 µM", "result": 4.28, "unit": "nM"}, {"measurement": "IC50", "setting": "second compound 0.00949 µM", "result": 3.48, "unit": "nM"}, {"measurement": "IC50", "setting": "second compound 0.03 µM", "result": 4.6, "unit": "nM"}, {"measurement": "IC50", "setting": "second compound 0.0949 µM", "result": "< 3.16", "unit": "nM"}, {"measurement": "IC50", "setting": "second compound 0.3 µM", "result": "< 3.16", "unit": "nM"}, {"measurement": "viability, T/C", "setting": "second compound 0.000949 µM, first compound 0.00316 µM", "result": 67.5, "unit": "%"}, {"measurement": "viability, T/C", "setting": "second compound 0.000949 µM, first compound 0.01 µM", "result": 10.1, "unit": "%"}, {"measurement": "viability, T/C", "setting": "second compound 0.000949 µM, first compound 0.0316 µM", "result": 8.11, "unit": "%"}, {"measurement": "viability, T/C", "setting": "second compound 0.000949 µM, first compound 0.1 µM", "result": 7.98, "unit": "%"}, {"measurement": "viability, T/C", "setting": "second compound 0.000949 µM, first compound 0.316 µM", "result": 8.36, "unit": "%"}, {"measurement": "viability, T/C", "setting": "second compound 0.000949 µM, first compound 1 µM", "result": 8.73, "unit": "%"}, {"measurement": "viability, T/C", "setting": "second compound 0.003 µM, first compound 0.00316 µM", "result": 63.9, "unit": "%"}, {"measurement": "viability, T/C", "setting": "second compound 0.003 µM, first compound 0.01 µM", "result": 11.2, "unit": "%"}, {"measurement": "viability, T/C", "setting": "second compound 0.003 µM, first compound 0.0316 µM", "result": 8.78, "unit": "%"}, {"measurement": "viability, T/C", "setting": "second compound 0.003 µM, first compound 0.1 µM", "result": 8.02, "unit": "%"}, {"measurement": "viability, T/C", "setting": "second compound 0.003 µM, first compound 0.316 µM", "result": 8.07, "unit": "%"}, {"measurement": "viability, T/C", "setting": "second compound 0.003 µM, first compound 1 µM", "result": 8.41, "unit": "%"}, {"measurement": "viability, T/C", "setting": "second compound 0.00949 µM, first compound 0.00316 µM", "result": 53.5, "unit": "%"}, {"measurement": "viability, T/C", "setting": "second compound 0.00949 µM, first compound 0.01 µM", "result": 10.5, "unit": "%"}, {"measurement": "viability, T/C", "setting": "second compound 0.00949 µM, first compound 0.0316 µM", "result": 9.25, "unit": "%"}, {"measurement": "viability, T/C", "setting": "second compound 0.00949 µM, first compound 0.1 µM", "result": 7.85, "unit": "%"}, {"measurement": "viability, T/C", "setting": "second compound 0.00949 µM, first compound 0.316 µM", "result": 8.92, "unit": "%"}, {"measurement": "viability, T/C", "setting": "second compound 0.00949 µM, first compound 1 µM", "result": 8.55, "unit": "%"}, {"measurement": "viability, T/C", "setting": "second compound 0.03 µM, first compound 0.00316 µM", "result": 68.8, "unit": "%"}, {"measurement": "viability, T/C", "setting": "second compound 0.03 µM, first compound 0.01 µM", "result": 10.9, "unit": "%"}, {"measurement": "viability, T/C", "setting": "second compound 0.03 µM, first compound 0.0316 µM", "result": 8.53, "unit": "%"}, {"measurement": "viability, T/C", "setting": "second compound 0.03 µM, first compound 0.1 µM", "result": 8.14, "unit": "%"}, {"measurement": "viability, T/C", "setting": "second compound 0.03 µM, first compound 0.316 µM", "result": 8.68, "unit": "%"}, {"measurement": "viability, T/C", "setting": "second compound 0.03 µM, first compound 1 µM", "result": 8.3, "unit": "%"}, {"measurement": "viability, T/C", "setting": "second compound 0.0949 µM, first compound 0.00316 µM", "result": 44.6, "unit": "%"}, {"measurement": "viability, T/C", "setting": "second compound 0.0949 µM, first compound 0.01 µM", "result": 10.5, "unit": "%"}, {"measurement": "viability, T/C", "setting": "second compound 0.0949 µM, first compound 0.0316 µM", "result": 8.39, "unit": "%"}, {"measurement": "viability, T/C", "setting": "second compound 0.0949 µM, first compound 0.1 µM", "result": 7.33, "unit": "%"}, {"measurement": "viability, T/C", "setting": "second compound 0.0949 µM, first compound 0.316 µM", "result": 8.62, "unit": "%"}, {"measurement": "viability, T/C", "setting": "second compound 0.0949 µM, first compound 1 µM", "result": 7.75, "unit": "%"}, {"measurement": "viability, T/C", "setting": "second compound 0.3 µM, first compound 0.00316 µM", "result": 30.3, "unit": "%"}, {"measurement": "viability, T/C", "setting": "second compound 0.3 µM, first compound 0.01 µM", "result": 7.82, "unit": "%"}, {"measurement": "viability, T/C", "setting": "second compound 0.3 µM, first compound 0.0316 µM", "result": 6.28, "unit": "%"}, {"measurement": "viability, T/C", "setting": "second compound 0.3 µM, first compound 0.1 µM", "result": 6.15, "unit": "%"}, {"measurement": "viability, T/C", "setting": "second compound 0.3 µM, first compound 0.316 µM", "result": 6.47, "unit": "%"}, {"measurement": "viability, T/C", "setting": "second compound 0.3 µM, first compound 1 µM", "result": 5.78, "unit": "%"}]}
